The values below come from a melting point compilation (Tetko et al.; mined from patent text by program, amines drawn as free bases though some values may be those of a salt).

One may read the melting point as the temperature of the solid-liquid transition. `Cc1cccc(C(=O)NO)c1N(C)S(=O)(=O)c1ccc(OCCCCNC(=O)c2cc3ccccc3o2)cc1` had a melting point of 131 to 134 °C.

As for `CCCCCCCCCc1ccc(C(CCCCC(=O)O)SCCC(=O)O)cc1` (centres undefined), the melting point lay in the range of 61 to 62 °C. To `CCc1cc(C=Cc2ccccc2O)on1` belongs 175 to 176 °C; to `O=C(O)c1cc(NCc2ccc(Cl)cc2)ccc1O`, 227 to 228 °C; to `O=C1NCCc2c(-c3ccc(F)c(Cl)c3)[nH]c3cccc1c23`, 234 to 235 °C. Compound `CCNC(=O)CC1CCN(Cc2cnc3c(C)c(NC(=O)c4ccc(-c5ccc(F)cc5)cc4)ccc3c2)CC1` came in with a melting point of 243 to 245 °C. As for `CC(C)(C)OC(=O)[C@@H]1CCCN1C(=O)C1CCC1SC(=O)c1ccccc1` (some centres undefined), the melting point was in the range of 102 to 103 °C. In the case of `CCOC(=O)CC1(c2ccc(Cl)c(Cl)c2)CNC(=O)C1` (centres undefined), the melting point is 87 to 90 °C. In the case of `C=CCN(C)c1ccc(C(C#N)=C(C#N)C#N)cc1`, the melting point was 155 °C. To `CS(=O)(=O)Nn1c(=O)[nH]c2cc(C(F)(F)F)c(N3CCC3)cc2c1=O` belongs 266 to 283 °C; to `Cc1sc2c(Sc3ccccc3)c3ccccc3c(-c3cc(Br)c(O[C@H](C)C(=O)O)c(Br)c3)c2c1C`, 237 to 239 °C.

Turning to `CCCc1nc2c(N)nc3ccccc3c2n1CC1(O)CCS(=O)(=O)CC1`, the melting point was more than 250 °C. Compound `CCCCCS(=O)(=O)NC(=O)CC(C)c1ccc(OCCOC)cc1Oc1ncc(C(F)(F)F)cc1Cl` (centres undefined) came in with a melting point of 137 °C. To `Cc1cc(Cl)ccc1C(=O)NN(CCF)CCF` belongs 85 to 87 °C; to `CSc1ccc(C2=C(Br)CCC2)cc1`, 52 to 54 °C. `Cc1nc2n(C)ccn2c(=O)c1CCCl` returned a melting point of 198 °C. To `O=c1nc(-c2cccc(S(=O)CCc3ccccc3)n2)sc2ccccc12` (centres undefined) belongs 164 to 166 °C.

On to `C=C(C)C(=O)Oc1ccc2ccc(O)c(-n3nc4ccccc4n3)c2c1`, for which the melting point lay in the range of 167 to 168 °C. The compound `CC(=O)NNc1ccc(Cl)c(CN2OCC(C)(C)C2=O)c1` had a melting point of 178 to 180 °C. As to `N#Cc1cccc2c1CC(=NN)c1ccccc1S2`, the melting point was in the range of 175 to 177 °C.

For the compound `Cc1ccc2cccc(OCc3c(Cl)ccc(S(=O)(=O)N4CCCC4C(=O)NCc4ccccc4)c3Cl)c2n1` (centres undefined), the melting point amounted to 143 °C.

`O=C(CCl)Nc1ccc2[nH]c(=O)c3ccccc3c2c1` returned a melting point of 300 to 303 °C. To `CCCc1c(OCCCOc2cccnc2CCC(=O)OC)ccc(C(C)=O)c1O` belongs 85 to 87 °C. With `COC1(C)Oc2cccc(O)c2O1` (centres undefined), the melting point lay within 106 to 109 °C. As to `CC(C)c1ncc(CCCOc2nn(C)cc2CC(=O)O)c(Oc2ccc(Cl)cc2Cl)n1`, the melting point lay in the range of 107 to 108 °C. `CCCCn1cnc2c(SCc3ccc4nsc(Br)c4c3)ncnc21` came in with a melting point of 118 to 119 °C. In turn, `COC(=O)[C@@H]1O[C@@H](c2ccccc2)N(NS(=O)(=O)c2c3ccccc3cc3ccccc23)[C@H]1c1ccccc1` displayed a melting point of 71 to 73 °C. The compound `C#Cc1ccc(Nc2c(C(=O)NOCCO)ccc(F)c2F)c(F)c1` showed a melting point of 162 °C. `Clc1ccccc1-c1n[nH]c(SCc2ccccc2)n1` registered a melting point of 84 to 86 °C.

In the case of `CCOC(=O)CCC(=O)[C@H](Cc1ccccc1)NC(=O)OC(C)(C)C`, the melting point was 56 to 58 °C. To `c1ccc(N2CCNc3nc4ccccc4n3CC2)cc1` belongs 156 to 158 °C.

Compound `O=C(O)Cc1nn(C(c2ccccn2)c2ncno2)c(=O)c2ccccc12` (centres undefined) gave a melting point of 196 to 200 °C.

Consider `CCONC(O)(CC)C1C(=O)C=C(CC)OC1=O` (centres undefined), for which the melting point was in the range of 63 to 64 °C. `COc1ccc(COC(=O)ON=C(C#N)c2ccccc2)cc1` came in with a melting point of 112 to 113 °C. Regarding `CC1(C)CCC[C@]2(C)OC(=O)C[C@H]12`, the melting point fell in the range of 74 to 75 °C. For the compound `CC(C)(C)n1ncc(Cl)c(NCCN2CCN(c3cccc4c3OCCO4)CC2)c1=O`, the melting point was in the range of 177 to 178 °C. In turn, `COC(=O)c1cccc(C)c1NS(=O)(=O)c1nc2nc(C)cc(C)n2n1` returned a melting point of 181 to 182 °C.

As to `CCc1nnc2c(NC3CCCCC3)nc3ccccc3n12`, the melting point lay within 217 to 220 °C.

In the case of `NC(=S)NC1Cc2ccccc2C1`, the melting point came out at 155 °C. With `COc1cccc2c1CCC(CN1CCC(O)(c3ccccc3)CC1)C2=O` (centres undefined), the melting point lay in the range of 163 to 165 °C. In turn, `CN1C(C(=O)O)C(=O)c2ccccc2S1(=O)=O` (centres undefined) returned a melting point of 144 to 146 °C. For the compound `COc1ccc(C2Cc3cc(C(F)(F)F)ccc3NC(=O)C2COS(=O)(=O)c2ccc(C)cc2)cc1` (centres undefined), the melting point lay in the range of 170 to 172 °C. Compound `COC(=O)NC(=S)Nc1cc(C(=O)c2ccccc2)ccc1NCc1ccccc1` registered a melting point of 75 to 79 °C. Compound `CS(=O)(=O)c1nccc(Oc2ccc(NC(=O)c3cc(F)cc(N4CCOCC4)c3)c3ccccc23)n1` registered a melting point of 173 to 175 °C. To `O=C(O)C1=NN(c2ccc(Cl)cc2)C(c2ccccc2)C1` (centres undefined) belongs 177 to 179 °C.

Turning to `NN1CCN(C2c3ccccc3C=C(Br)c3ccccc32)CC1` (centres undefined), the melting point lay within 188 to 190 °C. In the case of `Nc1cc(-c2ccoc2)ccc1Nc1cccc(-n2cccc2)c1`, the melting point lay within 194 to 195 °C. `Cn1c(=O)c(-c2ccc(Cl)cc2Cl)cc2c3cc(-c4nc(CN5CCCC5)cs4)ccc3n(C)c21`: the melting point was in the range of 222 to 226 °C. In turn, `Cc1csc(C2(c3cccs3)CCCO2)n1` (centres undefined) had a melting point of 59 to 60 °C.

With `CCOCC1=NC(=Cc2cccs2)C(=O)O1`, the melting point turned out to be 102 °C. The compound `COC(=O)C[C@H](NC(=O)OCc1ccccc1)C(=O)O` displayed a melting point of 55 to 60 °C.

`Cc1ccc(C(C)C)c2c1CC(NNc1ncnc3c1ncn3C1OC(CO)C(O)C1O)CO2` (centres undefined) yielded a melting point of 98 to 101 °C. `Cc1noc2ccc([N+](=O)[O-])cc12` yielded a melting point of 84.5 to 86.5 °C.

`CC(=O)NCc1ccc(C(C)(C)C(=O)O)cc1` yielded a melting point of 166 to 169 °C. `O=C1c2ccc(Nc3ccc(F)cc3F)cc2CCc2cc(OCCCO)ccc21` gave a melting point of 154 °C.

`CCCCCN(CCC12CC3CC(CC(C3)C1)C2)C(=O)NCCc1ccccn1`: the melting point fell in the range of 80 to 100 °C.

On to `CC(=O)NCC(=O)N1CC(=O)NC1(C)C`, for which the melting point is 214 to 215 °C. In turn, `CC(Cc1ccc(OCc2ccncc2)cc1)NCC(O)c1cccc(Cl)c1` (centres undefined) showed a melting point of 85 to 110 °C.

`CC1(C)c2ccccc2N2Cc3cc([N+](=O)[O-])ccc3OC21C` (centres undefined) returned a melting point of 180 °C. As to `COc1ccc(-c2nc(Sc3ccncc3)[nH]c2-c2ccc(OC)cc2)cc1`, the melting point was 177 to 179 °C. Take `C#CCn1c(C)c(C)c2cnnc(OCc3ccccc3)c21`: the melting point is 116 to 117 °C.

Take `CC(CN(C(C)C)C(C)C)N1C(=O)C(=O)c2ccccc21` (centres undefined): the melting point was in the range of 70 to 71 °C. To `COc1cc(-c2c(C)c3cc(O)ccc3n2Cc2ccc(OCCN3CCCCC3)cc2)ccc1O` belongs 161 to 163 °C; to `CCCCC1N=CC(C=O)(Cc2ccc(C(=O)OC)c3ccccc23)N1` (centres undefined), 95.5 to 97 °C.

In the case of `CC1CCN(c2cc(C(C)(C)C)on2)C1=O` (centres undefined), the melting point fell in the range of 89 to 90 °C. Turning to `CCCCCc1c(-c2ccc3c(Br)c(OCC(=O)O)ccc3c2)oc2ccccc12`, the melting point fell in the range of 159 to 161 °C.

As for `CCOC(=O)CCCn1c(=O)c2sc(N)nc2n(C)c1=O`, the melting point lay within 170 to 171 °C. For `Cc1ccc(-c2ccccc2C(=O)NCCC#N)cc1`, the melting point was in the range of 102 to 104 °C. `CNCCn1nc2c3c(c(NCCNCCO)ccc31)C(=O)c1c(OCc3ccccc3)ccc(OCc3ccccc3)c1-2` came in with a melting point of 186 to 189 °C. For the compound `CCCCN=C1SC(=CC(=O)O)C(=O)N1CCCC`, the melting point lay in the range of 99 to 101 °C. As to `O=C(O)CCc1cn(Cc2ccc(OCc3cncc(-c4ccccc4)c3)cc2)nc1-c1ccccc1`, the melting point is 161 to 162 °C. To `CCON=C(CC)C1=C(OC(=O)c2ccccc2)CC(c2c(OC)cc(OC)cc2OC)CC1=O` (centres undefined) belongs 139 °C; to `O=[N+]([O-])c1cc(Br)ccc1Nc1cccc(-n2ccnc2)n1`, 194 to 195 °C.

The compound `Nc1ccc2c(=O)n(-c3ccccc3)c(=O)n(-c3ccccc3)c2n1` displayed a melting point of 162 to 163 °C. Compound `COC(=O)c1cccc2c1c1c(O)c3c(cc1n2Cc1ccccc1)CCCC3` had a melting point of 174 to 176 °C. Turning to `CCN(CC)C(=S)n1cc(F)c(/N=C/N(C)C)nc1=O`, the melting point lay within 118 to 123 °C. For `COc1ccc(Nc2cc(Cl)ccc2[N+](=O)[O-])cc1`, the melting point stood at 98 °C.

Compound `c1ccc(-c2cnc3c(c2)nnc2cncn23)cc1` yielded a melting point of 225 to 227 °C.

With `Nc1c(C(=O)c2ccccc2OCc2ccccc2)oc2ccc(Cl)cc12`, the melting point was in the range of 158 to 160 °C. The compound `CC(=O)OC1COC(N)C(OC(C)=O)C1OC(C)=O` (centres undefined) yielded a melting point of 148 to 149 °C.

In the case of `COc1ccc(C(=O)NC(Cc2ccccc2)C(=O)NC(Cc2ccc(O)cc2)C(=O)O)cc1` (centres undefined), the melting point lay in the range of 198 to 200 °C. For the compound `CN(C)C1CCN(Cc2ccc3c(c2)Cc2c(-c4cccs4)n[nH]c2-3)CC1`, the melting point was 96 to 98 °C. In the case of `Cc1cc(-c2nc3ccccc3c(=O)n2-c2ccc(C(F)(F)F)cc2)cc(C)c1OCCO`, the melting point was 160 to 161 °C. `Clc1cc(Cl)nc(N2CCOCC2)n1` displayed a melting point of 140 °C. Turning to `CC(=O)NCCCc1nc2cc(C3=NNC(=O)CC3C)ccc2[nH]1` (centres undefined), the melting point fell in the range of 244 to 246 °C.

Turning to `CNC1CCc2[nH]c3ccc(OCc4ccccc4)cc3c2C1` (centres undefined), the melting point was 120 to 121 °C. To `CC(C)(C)OC(=O)COc1coc(CN2CCCC2)cc1=O` belongs 93 to 94 °C; to `CC(C)(C)C(=O)Nc1ncccc1CNC1CCN(Cc2ccccc2)CC1`, 138 °C. In the case of `CCCCc1nc(C(F)(F)F)c(CO)n1Cc1ccc(-c2ccccc2C(=O)O)cc1`, the melting point fell in the range of 198 to 200 °C.
